Measurements published in patent publication US7988956B2, “Hydrolytically degradable carbamate derivatives of poly(ethylene glycol)” (Nektar Therapeutics, priority 1999, dated 2011).

What was measured:
[1] = Hydrolysis of the PEG conjugate of lysozyme monitored by capillary electrophoresis; assay type: physicochemical; conditions: after hydrolysis for 10 days at pH 7 and 37° C.; CE, FIG. 1 Curve B
Method: The conjugates prepared as described above were placed at 37° C. and at room temperature and hydrolysis was monitored by capillary electrophoresis (CE).
CE conditions: A solution of 25 mM phosphate buffer, containing 0.1 mg/ml PEO 600K, pH 2.7 was flushed through the capillary for approximately 15-20 min. A voltage of 15 kV was applied until a smooth baseline was obtained. The 25 mM phosphate buffer solution was again flushed through for approximately 5 min and the capillary was then ready for sample injection. The sample, which was adjusted to pH 2 by a phosphate buffer (0.1 M, pH 2), was injected hydrostatically for about […] at a height of approximately 6 inches. A voltage of 15 kV was applied throughout the run with a current between 24 and 30 μA. The protein and PEG-protein conjugate were detected by a UV monitor at 214 nm. The CE instrument consists of a high-voltage power supply (Spellman CZE1000R), a fused silica capillary (75 μm i.d., 360 μm o.d., Polymicro Technologies, Phoenix, Ariz.) and a linear 200 UV/VIS monitor supplied with a deuterium lamp and a capillary flow cell. The total length of the capillary was 64.5 cm, with a 1 cm optical window at 40 cm from the anode. UV data was retrieved and stored using LabVIEW version 4.0.1 software (National Instruments).

[2] = test system: Micrococcus lysodeikticus; experiment: Bioactivity measurement of reversible lysozyme conjugate (Sigma HEW lysozyme protocol, decrease in absorbance at 450 nm); assay type: biochemical; conditions: 66 mM sodium phosphate buffer pH 6.24
Method: Bioactivity of free lysozyme, PEG conjugates of lysozyme and lysozyme recovered from hydrolysis of the conjugates were measured by an assay from the standard protocol of Sigma for hen's egg white (HEW) lysozyme EC.3.2.1.17. A solution containing the unmodified or PEG-modified lysozyme was diluted to 5.5 μg/ml in a 66 mM sodium phosphate buffer (pH 6.24). A suspension of 1.5 mg Micrococcus lysodeikticus in 10 ml of 66 mM phosphate buffer (pH 6.24) was allowed to equilibrate at room temperature until the absorbance at 450 nm was constant. Then 0.1 ml of a lysozyme solution was placed in a 1 cm light path quatz cuvette containing 2.5 ml of the substrate suspension. The decrease in the absorbance at 450 nm was recorded and the activity was determined from the maximum linear rate. Eighty-two percent of lysozyme bioactivity was recovered from the m-PEG-lysozyme conjugate, while the mPEG lysozyme had undetectable bioactivity prior to hydrolysis.

Substance: mPEG-lysozyme conjugate: mPEG-lysozyme conjugate prepared with N-mPEG benzamide-m-succimidyl carbonate; mono, di and tri PEGylated lysozyme
- free lysozyme released [1]: more than 85%
- bioactivity prior to hydrolysis ([2]; PEG conjugate before hydrolysis): undetectable
- lysozyme bioactivity recovered from the conjugate ([2]; lysozyme recovered from hydrolysis of the conjugate): Eighty-two
